Literature values as cited in article PMC9150182 (ACS Sensors, 2022).

Tests used:
5-HT4 isoform g 302Y>F [1] = details: 302Y>F variant, COS7 cells
5-HT1A = target: T1, 5-HT1A (Homo sapiens, UniProt P08908); details: yeast, Gpa1/Gαi3 chimera
T1 sequence (P08908 1-422): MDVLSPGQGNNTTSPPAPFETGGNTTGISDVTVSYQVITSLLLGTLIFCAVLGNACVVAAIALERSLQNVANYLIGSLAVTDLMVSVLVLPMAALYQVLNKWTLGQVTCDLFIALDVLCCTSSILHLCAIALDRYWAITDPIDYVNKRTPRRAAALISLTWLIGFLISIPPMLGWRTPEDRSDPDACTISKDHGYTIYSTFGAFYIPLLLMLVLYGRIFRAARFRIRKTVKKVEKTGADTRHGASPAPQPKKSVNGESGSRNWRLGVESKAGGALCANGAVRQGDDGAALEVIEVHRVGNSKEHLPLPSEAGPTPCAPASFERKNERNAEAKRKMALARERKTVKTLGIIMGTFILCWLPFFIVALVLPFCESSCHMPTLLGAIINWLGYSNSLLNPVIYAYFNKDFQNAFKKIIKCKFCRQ

5-HT4 isoform g 302Y>F [2] = details: 302Y>F variant, COS7 cells; remark: listed apart in the source

**Q.** For `Cn1cc(C(=O)OCC2CCN(CCNS(C)(=O)=O)CC2)c2ccccc21` [GR113808], which “decrease of affinity to the receptor” value (5-HT4 isoform g 302Y>F [1]) is on record?
**A.** 13 fold

**Q.** What does the source list for `NCCc1c[nH]c2ccc(O)cc12` [serotonin]?
**A.** increase over basal fluorescence after activation with serotonin (5-HT1A): 300%; effect of variant on serotonin-induced activity (5-HT4 isoform g 302Y>F [2]): did not affect serotonin-induced activity
